Data: article PMC3567921 (Clinical cancer research : an official journal of the …, 2012)

Target: T1, Axl (Homo sapiens, UniProt P30530)
T1 sequence (P30530 26-894): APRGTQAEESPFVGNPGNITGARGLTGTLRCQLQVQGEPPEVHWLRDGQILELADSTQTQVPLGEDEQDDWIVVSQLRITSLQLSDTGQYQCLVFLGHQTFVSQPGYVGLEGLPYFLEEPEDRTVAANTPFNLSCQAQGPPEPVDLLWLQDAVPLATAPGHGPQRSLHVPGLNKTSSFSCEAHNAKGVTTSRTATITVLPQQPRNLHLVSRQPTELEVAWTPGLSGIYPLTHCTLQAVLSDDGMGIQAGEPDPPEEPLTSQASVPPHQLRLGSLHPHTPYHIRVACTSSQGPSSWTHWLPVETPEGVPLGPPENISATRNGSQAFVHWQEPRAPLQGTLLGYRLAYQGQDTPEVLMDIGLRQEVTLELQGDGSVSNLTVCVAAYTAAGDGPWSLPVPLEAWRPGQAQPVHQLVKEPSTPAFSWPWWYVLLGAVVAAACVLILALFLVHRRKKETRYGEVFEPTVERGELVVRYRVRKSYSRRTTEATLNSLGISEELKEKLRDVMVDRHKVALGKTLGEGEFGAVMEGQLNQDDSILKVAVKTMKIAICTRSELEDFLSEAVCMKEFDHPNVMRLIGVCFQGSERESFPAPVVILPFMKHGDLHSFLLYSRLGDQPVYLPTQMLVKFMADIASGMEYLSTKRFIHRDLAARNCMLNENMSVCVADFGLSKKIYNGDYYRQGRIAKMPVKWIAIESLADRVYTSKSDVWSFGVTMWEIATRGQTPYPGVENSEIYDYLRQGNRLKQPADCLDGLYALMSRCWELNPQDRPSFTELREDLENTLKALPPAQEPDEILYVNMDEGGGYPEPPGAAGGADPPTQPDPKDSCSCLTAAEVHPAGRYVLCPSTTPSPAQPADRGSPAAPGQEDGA
Test: anti-FLAG immunoprecipitation, phosphotyrosine Western blot densitometry
Assay type: cell-based

Structure (SMILES): Cc1c[nH]c2nc(Nc3ccc(N4CCN(C)CC4)c(F)c3)nc(-c3cccc(CC#N)c3)c12 [SGI-7079]
- EC50: < 100 nM
